Results from patent publication US6451798B2, “Substituted alkyl piperazine derivatives” (CV Therapeutics, Inc., priority 2000, dated 2002).

Experiments:
[1] = Metabolic stability in human liver S-9 fractions; conditions: for Liver S-9 stability factor: % parent remaining after 30 min at 37 C divided by average % ranolazine remaining (57%), 10 μM, human liver S9 2 mg/mL
Method: As a measure of metabolic stability the compounds of this invention were incubated with human liver S-9 microsomal fractions. After, 30 minutes at 37 C, the amount of parent drug remaining was determined using LC-mass spec. The response factors for each compound was determined by establishing a standard curve and using an internal standard during the analysis of the samples. […] The compounds of this invention were assayed as described in the protocol below and the percentage of parent remaining was divided by the average % of ranolazine remaining (57%) affording a metabolic stability factor.
The following reagents were used; Potassium phosphate, 0.5M pH 74. (incubation buffer), kept at room temperature; 0.05M MgCl2 kept at 4° C.; β-Nicotinamide adenine dinucleotide phosphate, tetrasodium salt, reduced form (NADPH), 0.02M solution in water (˜16.6 mg/mL) from Sigma Lot #79H7044 prepared on day of use.
Incubation mixtures were prepared as follows:
Combine all components with incubation buffer and re-pipette 200 μL/tube+25 μL of the compound being tested along with 25 μL of S-9.
After 5 min of pre-incubation at 37° C., at 0 and 30 min after starting the reaction, a 50 μl aliquot of the incubation mixture was removed and added to 100 μL of 9:1 acetonitrile: methanol containing the internal standard.
The mixture was centrifuged and a 100 μL aliquot of the supernatant was diluted in 1 mL of solvent C (0.1% Formic Acid in water). Then samples were analyzed for change between the ratio of compound to internal standard at time zero and 30 minutes by LC/MS (injected 10 μL).
Samples were analyzed for the starting compounds and potential metabolite/s by LC/MS using an internal standard on a Micromass platform mass spec with a Keystone Inc. BDS ODS-C18 column with a flow rate of 0.25 ml/min.

[2] = tested on: mitochondrial fatty acid oxidation using palmitoyl carnitine as substrate; test: Palmitoyl carnitine oxidation in isolated rat heart mitochondria; assay type: biochemical; conditions: 15 min at 30° C.
Method: Rat heart mitochodria were isolated by the method of Nedergard and Cannon (Methods in Enzymol. 55, 3, 1979).
The Palmitoyl carnitine oxidation was carried out in a total volume of 100 microliters containing the following agents: 110 mM KCl, 33 mM Tris buffer at pH 8, 2 mM KPi, 2 mM MgCl2, 0.1 mM EDTA, 0.1 mg/ml of defatted BSA, 0.5 mM malic acid, 3 mM ADP, 52 micrograms of mitochondrial protein, and 43 microM 1-C14 palmitoyl carnitine (Sp. Activity 60 mCi/mmole; 20 microCi/ml, using 5 microliters per assay). The compounds of this invention were added in a DMSO solution at the following concentrations: 100 microM, 30 microM, and 3 microM. In each assay, a DMSO control was used. After 15 min at 30° C., the enzymatic reaction was centrifuged (20,000 g for 1 min), and 70 microliters of the supernatant was added to an activated reverse phase silicic acid column (approximately 0.5 ml of silicic acid). The column was eluted with 2 ml of water, and 0.5 ml of the eluent was used for scintillation counting to determine the amount of C^14 trapped as C^14 bicarbonate ion. The data are presented as % activity of control.

Row | Liver S-9 stability factor [1] | Structure (SMILES) | also measured
1 | 1.48 | Cc1cccc(C)c1NC(=O)CN1CCN(CC(O)COC2CCCC2)CC1 (stereo not drawn) [Compound 12] | 
2 | 1.0 | COc1ccccc1OCC(O)CN1CCN(CC(=O)Nc2c(C)cccc2C)CC1 (racemic) [Ranolazine, (±)-N-(2,6-dimethylphenyl)-4-[2-hydroxy-3-(2-methoxyphenoxy)propyl]-1-piperazineacetamide, reference compound] | Mitochondrial fatty acid oxidation activity (% of control) ([2]; 30 μM compound): 98%; Mitochondrial fatty acid oxidation activity (% of control) ([2]; 100 μM compound): 63%; percentage of parent drug remaining at the 30 minute time point ([1]; human liver S-9, 30 minutes at 37 C, average of five experiments): 57%
3 | 0.01 | Cc1cccc(C)c1NC(=O)CN1CCN(CC(O)COCc2ccc3ccccc3c2)CC1 (stereo not drawn) [Compound 25, N-(2,6-dimethylphenyl)-2-{4-[2-hydroxy-3-(2-naphthylmethoxy)propyl]piperazinyl}acetamide] | 
4 | 0.05 | Cc1cccc(C)c1NC(=O)CN1CCN(CC(O)COCc2ccc(-c3ccccc3)cc2)CC1 (stereo not drawn) [Compound 23, N-(2,6-dimethylphenyl)-2-(4-{2-hydroxy-3-[(4-phenylphenyl)methoxy]propyl}piperazinyl)acetamide] | 
5 | 0.61 | Cc1ccc(COCC(O)CN2CCN(CC(=O)Nc3c(C)cccc3C)CC2)cc1 (stereo not drawn) [Compound 22, N-(2,6-dimethylphenyl)-2-(4-{2-hydroxy-3-[(4-methylphenyl)methoxy]propyl}piperazinyl)acetamide] | 
6 | 1.0 | Cc1cccc(C)c1NC(=O)CN1CCN(CC(O)COCc2ccc(C(F)(F)F)cc2)CC1 (stereo not drawn) [Compound 17, N-(2,6-dimethylphenyl)-2-[4-(2-hydroxy-3-{[4-(trifluoromethyl)phenyl]methoxy}propyl)piperazinyl]acetamide] | 
7 |  | Cc1cccc(C)c1NC(=O)CN1CCN(CC(O)COC(C)C)CC1 (stereo not drawn) [Compound 10] | Mitochondrial fatty acid oxidation activity (% of control) ([2]; 100 μM compound): 80%
8 | 1.20 | Cc1cccc(C)c1NC(=O)CN1CCN(CC(O)COC2CCCCC2)CC1 (stereo not drawn) [Compound 13] | 
9 | 0.02 | CCCCc1ccc(COCC(O)CN2CCN(CC(=O)Nc3c(C)cccc3C)CC2)cc1 (stereo not drawn) [Compound 24, N-(2,6-dimethylphenyl)-2-(4-{3-[(4-butylphenyl)methoxy]-2-hydroxypropyl}piperazinyl)acetamide] | 
